The target of assay [1] is T1, ErbB2 kinase (Homo sapiens, UniProt P04626).
T1 construct: The final concentration of ErbB2 kinase was 0.06 ng/μL
The experiment in a line: EGFR/ErbB2 enzymatic experiment (HTRF kinEASE-TK), ErbB2. As to conditions: ErbB2 kinase 0.06 ng/μL, ATP 4 μM; read-out: Kinase IC50 (nM) in vitro ErbB2. It is filed as biochemical. How it is done:
(§1) EGFR/ErbB2 Enzymatic Experiment
(§2) Firstly, 1× reaction buffer required for the kinase was prepared, then 5× Enzymatic buffer (HEPES 20 mM pH 7.0, NaN3 0.1%, BSA 0.05%, sodium orthovanadate 0.5 mM) was diluted in HTRF kinEASE-TK kit by 1 time with deionized water, and 50 nM Supplement Enzymatic buffer (SEB REAGENT), 1 mM MnCl2, 5 mM MfCl2, 1 mM DTT were added. Secondly, 5× compound was prepared, and 10 mM test compound storage solution was diluted in multiple steps with DMSO in a 96-well compound plate to prepare 100× compound as an initial concentration, which was then used as the first concentration to carry out a 3-fold gradient dilution with DMSO to obtain a total of 10 concentrations. Then 1 μL of gradient diluent was added to 19 μL of 1× reaction buffer to prepare 5× compound for later use. Then 2 μL of 5× compound was transferred from the 96-well plate into a 384-well plate. To the compound-free control wells was added 2 μL of the following liquid: 19 μL of 1× reaction buffer with addition of 1 μL of DMSO. To the blank control well was added 2 μL of 250 mM EDTA. […] In the fourth step of reaction termination, HTRF Detection buffer was used to prepare a mixture of 2×TK Antibody-EU (K) and Sa-XL665, and the amount of TK Antibody-EU (K) was 5 μL per well. After the enzyme reaction was carried out for 30 minutes, 10 μL of the above liquid was added to a 384-well plate, and the reaction was carried out at room temperature for 1 hour. […] RFU665 nM and RFU620 nM were measured, and RFU665 nM/RFU620 nM×10000 was used as final data for analysis.
Background: TR-FRET usually uses a lanthanide donor and a delayed reading to cut background.

For assay [2], the system named is N87 (human gastric cancer cell NCI-N87). Briefly: In vitro proliferation inhibition assay of cell lines (CellTiter-Glo), N87. The class given is cell-based. As to conditions: N87 cells, 72 hours. Here is the method: (§3) In Vitro Proliferation Inhibition Assay of Cell Lines
(§4) 1. Cell culture and inoculation: on the first day of the experiment, normal cultured cells were taken, and in the exponential growth state, after digestion and dispersion, the cell density was then adjusted to 8.8×10^4 cells/mL for BT-474, and 6.6×10^4 cells/mL for N87, and 90 μL of which were inoculated to each well of a 96-well cell culture plate; after the inoculation was completed, the microplate was cultured under the conditions of 37° C. and 5% CO2 overnight. 2. Dosing to the cells: on the second day of the experiment, the microplate was taken out from the incubator, and 10 μL of 10× compound was added to each well of the microplate, setting 2 duplicate wells for each drug concentration and 9 dosing concentrations for each compound. According to different cell lines, the initial concentration of each compound was different. Upon completion of addition, the microplate was placed under the conditions of 37° C. and 5% CO2 for 72 hours. 3. Data acquisition: the microplate was taken out from the incubator and was allowed to equilibrate at room temperature for 30 minutes. 100 μL of CellTiter-Glo® Luminescent Cell Viability Assay reaction solution which had been equilibrated at room temperature was added to each well, and the reaction solution was shaken at 1300 rpm for 2 minutes at room temperature. After that, the microplate was placed in HERAEUS Multifuge X1R centrifuge, centrifuged at 2000 rpm for 1 minute, and allowed to equilibrate at room temperature for 10 minutes. The fluorescence signal value was measured on EnVision™.

Assay [3] relates to BT-474 (human breast cancer cell). Briefly: In vitro proliferation inhibition assay of cell lines (CellTiter-Glo), BT-474. The class given is cell-based. The settings on record: BT-474 cells, 72 hours. Here is the method:
as §3
as §4, with “Cell culture and inoculation: on the first day of the experiment, normal cultured cells were taken, and in the exponential growth state, after digestion and dispersion, the cell density was then adjusted to 8.8×10^4 cells/mL for BT-474, and 6.6×10^4 cells/mL for N87, and 90 μL of which were inoculated to each well of a 96-well cell culture plate; after the inoculation was completed, the microplate was cultured under the conditions of 37° C. and 5% CO2 overnight.” left out
In general terms: ATP-based viability assays read luminescence as a measure of living cells.

The target of assay [4] is EGFR kinase (Homo sapiens, UniProt P00533). The experiment in a line: EGFR/ErbB2 enzymatic experiment (HTRF kinEASE-TK), EGFR. The class given is biochemical. As to conditions: EGFR kinase 0.06 units/μL, ATP 1.65 μM; read-out: Kinase IC50 (nM) in vitro EGFR. How it is done: as §1, §2

What is called IC50 is the concentration that inhibits the measured activity by half.

Chain of EGFR kinase (P00533 25-1210): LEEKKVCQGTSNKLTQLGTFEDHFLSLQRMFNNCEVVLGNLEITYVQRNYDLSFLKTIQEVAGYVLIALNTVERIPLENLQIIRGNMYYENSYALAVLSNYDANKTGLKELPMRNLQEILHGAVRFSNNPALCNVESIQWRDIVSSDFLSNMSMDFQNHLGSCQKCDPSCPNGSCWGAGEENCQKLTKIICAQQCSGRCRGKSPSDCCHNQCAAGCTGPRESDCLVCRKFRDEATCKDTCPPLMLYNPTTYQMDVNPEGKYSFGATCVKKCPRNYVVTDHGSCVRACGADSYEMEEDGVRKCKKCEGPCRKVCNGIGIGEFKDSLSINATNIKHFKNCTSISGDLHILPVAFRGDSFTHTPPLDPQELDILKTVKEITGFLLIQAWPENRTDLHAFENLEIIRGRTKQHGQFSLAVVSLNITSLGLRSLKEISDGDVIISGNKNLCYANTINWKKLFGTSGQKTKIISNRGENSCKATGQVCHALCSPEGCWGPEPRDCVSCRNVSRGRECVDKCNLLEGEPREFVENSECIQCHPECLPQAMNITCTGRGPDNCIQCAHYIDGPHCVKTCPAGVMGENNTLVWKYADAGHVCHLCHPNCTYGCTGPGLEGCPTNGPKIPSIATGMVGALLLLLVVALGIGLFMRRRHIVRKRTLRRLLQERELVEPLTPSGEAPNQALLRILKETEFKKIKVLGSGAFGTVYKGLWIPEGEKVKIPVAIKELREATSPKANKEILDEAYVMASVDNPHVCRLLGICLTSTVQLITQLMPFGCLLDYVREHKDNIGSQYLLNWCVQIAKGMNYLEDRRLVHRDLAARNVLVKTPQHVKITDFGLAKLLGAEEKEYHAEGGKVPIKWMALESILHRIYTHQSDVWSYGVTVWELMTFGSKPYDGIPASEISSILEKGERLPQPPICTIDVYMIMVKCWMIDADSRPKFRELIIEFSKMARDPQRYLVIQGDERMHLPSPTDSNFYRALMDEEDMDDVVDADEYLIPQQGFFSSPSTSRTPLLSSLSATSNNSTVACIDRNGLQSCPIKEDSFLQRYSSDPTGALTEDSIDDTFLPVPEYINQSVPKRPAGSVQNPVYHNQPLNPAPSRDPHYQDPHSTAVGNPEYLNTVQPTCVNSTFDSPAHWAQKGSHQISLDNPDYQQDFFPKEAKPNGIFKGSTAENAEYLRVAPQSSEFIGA
T1 sequence (P04626 23-1255): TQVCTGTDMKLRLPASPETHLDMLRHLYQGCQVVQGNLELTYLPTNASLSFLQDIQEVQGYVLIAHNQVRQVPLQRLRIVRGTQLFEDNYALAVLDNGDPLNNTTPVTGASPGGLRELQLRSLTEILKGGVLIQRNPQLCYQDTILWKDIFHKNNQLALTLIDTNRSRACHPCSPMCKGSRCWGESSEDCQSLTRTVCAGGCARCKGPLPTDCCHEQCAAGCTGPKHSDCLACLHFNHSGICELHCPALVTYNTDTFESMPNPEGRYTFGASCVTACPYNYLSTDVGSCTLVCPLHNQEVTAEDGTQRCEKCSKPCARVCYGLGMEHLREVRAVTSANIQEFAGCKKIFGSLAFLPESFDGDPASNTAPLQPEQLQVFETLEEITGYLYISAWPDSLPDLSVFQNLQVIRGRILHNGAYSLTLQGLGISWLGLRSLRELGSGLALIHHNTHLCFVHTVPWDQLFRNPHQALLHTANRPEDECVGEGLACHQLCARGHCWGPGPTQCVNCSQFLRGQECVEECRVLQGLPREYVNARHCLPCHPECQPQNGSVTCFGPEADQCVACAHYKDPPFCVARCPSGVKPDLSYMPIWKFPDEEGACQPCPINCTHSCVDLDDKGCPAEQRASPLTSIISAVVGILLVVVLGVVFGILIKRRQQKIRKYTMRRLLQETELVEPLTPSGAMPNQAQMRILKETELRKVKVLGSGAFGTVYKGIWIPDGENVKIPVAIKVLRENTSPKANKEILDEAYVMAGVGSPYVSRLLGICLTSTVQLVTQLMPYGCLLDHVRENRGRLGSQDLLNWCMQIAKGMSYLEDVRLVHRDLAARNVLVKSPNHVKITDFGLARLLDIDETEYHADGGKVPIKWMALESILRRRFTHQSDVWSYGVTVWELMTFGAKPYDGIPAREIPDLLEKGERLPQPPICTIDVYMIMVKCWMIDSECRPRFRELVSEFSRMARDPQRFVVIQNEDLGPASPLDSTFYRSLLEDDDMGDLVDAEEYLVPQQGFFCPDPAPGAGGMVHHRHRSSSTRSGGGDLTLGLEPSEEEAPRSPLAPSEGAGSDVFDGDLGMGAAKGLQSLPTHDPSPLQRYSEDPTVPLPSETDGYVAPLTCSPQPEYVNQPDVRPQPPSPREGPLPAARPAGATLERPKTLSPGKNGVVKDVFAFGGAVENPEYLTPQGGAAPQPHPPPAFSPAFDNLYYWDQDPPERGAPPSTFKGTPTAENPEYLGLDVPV

On to `Cc1cc(Nc2ncnc3ccc(NC(=O)/C=C/[C@H]4CCCN4C)cc23)ccc1Oc1cnc2ccnn2c1`, for which the IC50 in assay [1] was 1.09 nM; in assay [2], 1.6 nM; in assay [3] it was 2.65 nM; in assay [4] it was 0.757 nM.

In the case of `Cc1cc(Nc2ncnc3ccc(NC(=O)/C=C/[C@H]4CCCN4C)cc23)ccc1Oc1ccc2nc[nH]c2c1`, the IC50 in assay [1] amounted to 0.689 nM; in assay [2], 22.6 nM; in assay [3], 15.4 nM; in assay [4] it was 1.5 nM.

In the case of `Cc1cc(Nc2ncnc3ccc(NC(=O)C=CC4COCCN4)cc23)ccc1Oc1cc2nncn2cn1` (stereo in doubt) [Final product of Embodiment 28, (E)-N-(4-((4-([1,2,4]triazolo[4,3-c]pyrimidin-7-yloxy)-3-methylphenyl)amino)quinazolin-6-yl)-3-(morpholin-3-yl)acrylamide], the IC50 in assay [1] came out at 3.25 nM; in assay [2] it was 33.4 nM; in assay [3] it was 11 nM; in assay [4] it was 5.29 nM.

Consider `Cc1cc(Nc2ncnc3ccc(NC(=O)/C=C/[C@@H]4CCCN4C)cc23)ccc1Oc1cc2nncn2cn1` [Final product of Embodiment 1-97, (S,E)-N-(4-((4-([1,2,4]triazolo[4,3-c]pyrimidin-7-yloxy)-3-methylphenyl)amino)quinazolin-6-yl)-3-(1-methylpyrrolidin-2-yl)acrylamide], for which, in assay [2], it took 10 nM to reach half-maximal inhibition (IC50).

In the case of `C=CC(=O)N1CCC[C@@H](Nc2ccc3ncnc(Nc4ccc(Oc5cc6nncn6cn5)c(C)c4)c3c2)C1` [Final product of Embodiment 7, (R)-1-(3-((4-((4-([1,2,4]triazolo[4,3-c]pyrimidin-7-yloxy)-3-methylphenyl)amino)quinazolin-6-yl)amino)piperidin-1-yl)propan-2-en-1-one], the IC50 came out at 0.851 nM in assay [1], 65.5 nM in assay [2], 49.5 nM in assay [3] and 7.09 nM in assay [4].

Consider `C=CC(=O)Nc1ccc2ncc(C#N)c(Nc3ccc(Oc4cc5nncn5cn4)c(C)c3)c2c1` [Final product of Embodiment 9, N-(4-((4-([1,2,4]triazolo[4,3-c]pyrimidin-7-yloxy)-3-methylphenyl)amino)-3-cyanoquinolin-6-yl)acrylamide], for which the half-maximal inhibitory concentration (IC50) was found to be 7.98 nM in assay [1], 18.8 nM in assay [2], 9.62 nM in assay [3] and 13.8 nM in assay [4].

For the molecule `Cc1cc(Nc2ncnc3ccc(/C=C/C(=O)N(C)C)cc23)ccc1Oc1cc2nncn2cn1` [Final product of Embodiment 15, (E)-3-(4-((4-([1,2,4]triazolo[4,3-c]pyrimidin-7-yloxy)-3-methylphenyl)amino)quinazolin-6-yl)-N,N-dimethylacrylamide], the IC50 in assay [1] was found to be 17.5 nM; in assay [2], 301 nM; in assay [3] it was 162 nM; in assay [4], 156 nM.

As for `Cc1cc(Nc2ncnc3ccc(/C=C/C(=O)NC4CC4)cc23)ccc1Oc1cc2nncn2cn1` [Final product of Embodiment 16, (E)-3-(4-((4-([1,2,4]triazolo[4,3-c]pyrimidin-7-yloxy)-3-methylphenyl)amino)quinazolin-6-yl)-N-cyclopropylacrylamide], the IC50 in assay [1] was 22 nM; in assay [2] it was 692 nM; in assay [3], 256 nM; in assay [4], 33.7 nM.

Take `CCOc1cc2ncc(C#N)c(Nc3ccc(OCc4ccccn4)c(Cl)c3)c2cc1NC(=O)/C=C/[C@H]1CCCN1C` [drawing 239, reference compound]: the IC50 in assay [1] turned out to be 1.67 nM; in assay [2], 1.2 nM; in assay [3] it was 2.56 nM.

`CCOc1cc2ncc(C#N)c(Nc3ccc(OCc4ccccn4)c(Cl)c3)c2cc1NC(=O)/C=C/CN(C)C` [drawing 240, reference compound] returned a half-inhibitory concentration (IC50) in assay [2] of 0.82 nM.

The values are drawn from patent US11578074B2, “Nitrogenous heterocyclic compound, preparation method, intermediate, composition, and application” (SHANGHAI PHARMACEUTICALS HOLDING CO., LTD., priority 2017, dated 2023).
